Test results taken from ChEMBL document CHEMBL4130375, “Design, synthesis and biological evaluation of 4-amidobenzimidazole acridine derivatives as dual PARP and Topo inhibitors for cancer therapy” (Eur J Med Chem, 2017).
Calls of active or inactive are those of the source. The calls are words filed in the database; no cut-off is given here.

Tests used:
HCC1937 = test: Antiproliferative activity against human HCC1937 cells harboring BRCA1 mutant after 72 hrs by MTT assay; type: functional, cell-based; conditions: HCC1937, 72 h
HCT-116 = test: Antiproliferative activity against human HCT116 cells expressing topoisomerase-1 after 72 hrs by MTT assay; type: functional, cell-based; conditions: HCT-116, 72 h
MCF7 = test: cells; conditions: Homo sapiens, MCF7, 72 h
[1] = biological target: Poly [ADP-ribose] polymerase 1 (Homo sapiens, UniProt P09874); test: Inhibition of PARP1 (unknown origin) assessed as reduction in biotinylated poly(ADP-ribose) incorporation on to histone protein by ELISA based colorimetric assay
[2] = biological target: DNA topoisomerase 2-alpha (Homo sapiens) (UniProt P11388); test: Inhibition of human topoisomerase-2 at 100 uM using supercoiled pBR322 DNA as substrate after 10 to 15 mins by ethidium bromide staining based electrophoresis method
Chain of DNA topoisomerase 2-alpha (Homo sapiens) (P11388 whole entry): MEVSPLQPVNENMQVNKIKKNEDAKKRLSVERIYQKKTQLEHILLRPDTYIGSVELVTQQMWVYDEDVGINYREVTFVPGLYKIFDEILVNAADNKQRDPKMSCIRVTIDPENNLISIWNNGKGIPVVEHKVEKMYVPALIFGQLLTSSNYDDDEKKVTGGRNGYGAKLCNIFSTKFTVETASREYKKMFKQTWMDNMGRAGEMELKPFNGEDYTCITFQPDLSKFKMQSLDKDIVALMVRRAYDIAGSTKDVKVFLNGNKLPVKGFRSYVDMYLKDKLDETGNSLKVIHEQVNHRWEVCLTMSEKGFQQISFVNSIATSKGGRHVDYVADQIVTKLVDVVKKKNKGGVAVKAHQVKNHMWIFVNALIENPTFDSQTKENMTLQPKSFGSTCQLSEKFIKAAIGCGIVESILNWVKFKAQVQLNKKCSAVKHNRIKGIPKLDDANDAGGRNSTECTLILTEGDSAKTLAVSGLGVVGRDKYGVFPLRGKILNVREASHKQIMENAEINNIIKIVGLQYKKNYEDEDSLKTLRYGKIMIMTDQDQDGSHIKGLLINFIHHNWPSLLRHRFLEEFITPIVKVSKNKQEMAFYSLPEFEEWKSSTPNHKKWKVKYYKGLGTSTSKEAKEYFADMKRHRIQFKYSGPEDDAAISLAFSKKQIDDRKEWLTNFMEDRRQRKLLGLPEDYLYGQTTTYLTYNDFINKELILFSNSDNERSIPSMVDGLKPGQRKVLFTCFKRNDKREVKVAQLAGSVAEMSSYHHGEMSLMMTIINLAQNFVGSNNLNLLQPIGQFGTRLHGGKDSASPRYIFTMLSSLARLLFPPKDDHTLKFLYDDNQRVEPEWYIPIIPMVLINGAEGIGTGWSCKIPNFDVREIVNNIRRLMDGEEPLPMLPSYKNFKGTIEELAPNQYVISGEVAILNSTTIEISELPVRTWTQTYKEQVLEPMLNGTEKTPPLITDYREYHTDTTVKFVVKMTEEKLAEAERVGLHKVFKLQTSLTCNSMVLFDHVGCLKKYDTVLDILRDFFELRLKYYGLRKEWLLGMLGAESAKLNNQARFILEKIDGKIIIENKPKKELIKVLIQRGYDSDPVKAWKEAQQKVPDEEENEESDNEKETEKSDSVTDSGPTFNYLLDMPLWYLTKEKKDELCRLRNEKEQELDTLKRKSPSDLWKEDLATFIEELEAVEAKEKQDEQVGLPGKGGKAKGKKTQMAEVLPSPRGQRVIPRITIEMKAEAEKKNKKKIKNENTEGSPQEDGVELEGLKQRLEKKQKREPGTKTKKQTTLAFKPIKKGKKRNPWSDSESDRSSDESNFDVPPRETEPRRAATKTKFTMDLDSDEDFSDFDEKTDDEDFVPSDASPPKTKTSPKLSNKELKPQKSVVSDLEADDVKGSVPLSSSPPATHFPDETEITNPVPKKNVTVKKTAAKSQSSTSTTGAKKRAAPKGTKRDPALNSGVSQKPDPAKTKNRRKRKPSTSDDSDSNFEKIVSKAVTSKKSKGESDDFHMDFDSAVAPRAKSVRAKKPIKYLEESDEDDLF

Chain of Poly [ADP-ribose] polymerase 1 (P09874 whole entry): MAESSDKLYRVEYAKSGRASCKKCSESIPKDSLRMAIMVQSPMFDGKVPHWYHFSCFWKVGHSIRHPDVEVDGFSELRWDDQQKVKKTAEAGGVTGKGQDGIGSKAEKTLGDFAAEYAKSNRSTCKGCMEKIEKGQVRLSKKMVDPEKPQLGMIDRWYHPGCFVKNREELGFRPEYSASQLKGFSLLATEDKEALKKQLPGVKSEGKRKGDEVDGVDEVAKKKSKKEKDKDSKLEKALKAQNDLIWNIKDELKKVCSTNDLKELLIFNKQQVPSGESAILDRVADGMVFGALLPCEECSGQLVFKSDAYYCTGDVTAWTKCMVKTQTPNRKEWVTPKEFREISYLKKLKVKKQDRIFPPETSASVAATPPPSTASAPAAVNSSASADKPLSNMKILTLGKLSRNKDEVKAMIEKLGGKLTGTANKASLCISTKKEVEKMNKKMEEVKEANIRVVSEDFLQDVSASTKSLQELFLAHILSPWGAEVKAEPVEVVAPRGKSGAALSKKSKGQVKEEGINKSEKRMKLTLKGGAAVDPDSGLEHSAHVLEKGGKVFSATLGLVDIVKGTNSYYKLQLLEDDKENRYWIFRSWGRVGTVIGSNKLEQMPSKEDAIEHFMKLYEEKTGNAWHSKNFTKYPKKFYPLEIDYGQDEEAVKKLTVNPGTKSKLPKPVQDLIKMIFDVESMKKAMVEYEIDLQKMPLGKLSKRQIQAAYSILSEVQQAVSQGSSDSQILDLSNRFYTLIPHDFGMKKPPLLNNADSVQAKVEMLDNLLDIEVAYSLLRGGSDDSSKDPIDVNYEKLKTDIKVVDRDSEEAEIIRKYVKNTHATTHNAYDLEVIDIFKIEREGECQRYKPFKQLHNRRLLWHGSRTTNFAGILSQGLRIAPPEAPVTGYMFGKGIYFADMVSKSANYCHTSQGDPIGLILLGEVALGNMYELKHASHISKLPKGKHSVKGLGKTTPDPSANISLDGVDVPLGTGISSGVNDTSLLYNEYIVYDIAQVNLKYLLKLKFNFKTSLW

SMILES: O=C(c1cc(Cc2n[nH]c(=O)c3ccccc23)ccc1F)N1CCN(C(=O)C2CC2)CC1 [OLAPARIB]
- IC50 (HCC1937): 4.97 µM
- IC50 (HCT-116): 15.1 µM
- IC50 (MCF7): 36.2 µM

SMILES: NC(=O)c1cccc2[nH]c(-c3ccccc3Nc3c4ccccc4nc4ccccc34)nc12
- IC50 [1]: 1.99 µM
- inhibition [2]: Active
- IC50 (MCF7): > 50 µM

SMILES: Cc1ccc2nc3ccccc3c(Nc3ccc(-c4nc5c(C(N)=O)cccc5[nH]4)cc3)c2c1
- IC50 [1]: 0.1 µM
- inhibition [2]: Active
- IC50 (MCF7): 39.3 µM

SMILES: NC(=O)c1cccc2[nH]c(-c3cccc(N)c3)nc12
- IC50 [1]: 0.03 µM
- IC50 (MCF7): > 50 µM

SMILES: COc1cccc2c(Nc3cccc(-c4nc5c(C(N)=O)cccc5[nH]4)c3)c3ccccc3nc12
- IC50 [1]: 0.97 µM
- inhibition [2]: Active
- IC50 (MCF7): 25.8 µM

SMILES: COc1ccc2nc3ccccc3c(Nc3ccccc3-c3nc4c(C(N)=O)cccc4[nH]3)c2c1
- IC50 [1]: 1.7 µM
- inhibition [2]: Active
- IC50 (MCF7): 21.8 µM

SMILES: NC(=O)c1cccc2[nH]c(-c3ccccc3N)nc12
- IC50 [1]: > 50 µM
- IC50 (MCF7): > 50 µM

SMILES: c1ccc2[nH]c(-c3ccc(Nc4c5ccccc5nc5ccccc45)cc3)nc2c1
- IC50 (MCF7): 26.1 µM

SMILES: NC(=O)c1cccc2[nH]c(-c3ccc(Nc4c5ccccc5nc5ccccc45)cc3)nc12
- IC50 [1]: 0.09 µM
- inhibition [2]: Active
- IC50 (MCF7): 12 µM

SMILES: NC(=O)c1cccc2[nH]c(-c3cccc(Nc4c5ccccc5nc5ccccc45)c3)nc12
- IC50 [1]: 1.39 µM
- IC50 (MCF7): 36.1 µM

SMILES: NC(=O)c1cccc2nc(-c3ccc(N)cc3)[nH]c12
- IC50 [1]: 0.03 µM
- IC50 (MCF7): > 50 µM

SMILES: Cc1ccc2nc3ccccc3c(Nc3cccc(-c4nc5c(C(N)=O)cccc5[nH]4)c3)c2c1
- IC50 [1]: 0.51 µM
- inhibition [2]: Active
- IC50 (MCF7): 29.6 µM

SMILES: COc1cc(NS(C)(=O)=O)ccc1Nc1c2ccccc2nc2ccccc12 [AMSACRINE]
- IC50 (HCC1937): 7.85 µM
- IC50 (HCT-116): 3.89 µM
- IC50 (MCF7): 8.7 µM

SMILES: Cc1cccc2c(Nc3ccc(-c4nc5c(C(N)=O)cccc5[nH]4)cc3)c3ccccc3nc12
- IC50 [1]: 0.14 µM
- inhibition [2]: Active
- IC50 (MCF7): 39.1 µM

SMILES: COc1ccc2nc3ccccc3c(Nc3ccc(-c4nc5c(C(N)=O)cccc5[nH]4)cc3)c2c1
- IC50 [1]: 0.25 µM
- inhibition [2]: Active
- IC50 (MCF7): 38.2 µM

SMILES: COc1ccc2nc3ccccc3c(Nc3cccc(-c4nc5c(C(N)=O)cccc5[nH]4)c3)c2c1
- IC50 [1]: 1.14 µM
- inhibition [2]: Active
- IC50 (MCF7): 45.3 µM

SMILES: COc1cccc2c(Nc3ccc(-c4nc5c(C(N)=O)cccc5[nH]4)cc3)c3ccccc3nc12
- IC50 [1]: 0.19 µM
- inhibition [2]: Active
- IC50 (MCF7): 13.2 µM

SMILES: CCCCc1ccc2nc3ccccc3c(Nc3cccc(-c4nc5c(C(N)=O)cccc5[nH]4)c3)c2c1
- IC50 [1]: 0.32 µM
- inhibition [2]: Active
- IC50 (MCF7): > 50 µM

SMILES: CCCCc1ccc2nc3ccccc3c(Nc3ccc(-c4nc5c(C(N)=O)cccc5[nH]4)cc3)c2c1
- IC50 [1]: 0.13 µM
- inhibition [2]: Active
- IC50 (MCF7): > 50 µM
